Measurements taken from patent US4311689A, “Method and container for production of diagnostic scanning” (priority 1978, dated 1982).
Where a name gives a salt, the structure may show the parent alone.

Test: Bio-distribution in rats 2 hours post injection
Type: in vivo
Procedure: The complex was injected into rats which were sacrificed 2 hours post injection.

| Compound | activity excreted in the urine (in words) | liver retention / uptake | activity retained in the kidneys | activity excreted in the urine | other results |
| --- | --- | --- | --- | --- | --- |
| Sc1cccc2cccnc12 [8-mercapto-quinolinehydrochloride] | small amount | about 37% | – | – | blood labelling: small amount; muscle uptake: ~15%; small intestine uptake: ~20% |
| O=P(O)(O)CP(=O)(O)O [methylenediphosphonic acid] | most of the remainder | – | – | – | bone uptake: about 37% |
| O=C[C@H](O)[C@@H](O)[C@H](O)[C@H](O)CO [d-glucose] | the bulk of the injected activity | about 5% | ~29% | – | – |
| O=C(O)CN(CCN(CC(=O)O)CC(=O)O)CCN(CC(=O)O)CC(=O)O | – | – | – | greater than 95% | – |
| O=C(O)CC(O)(CC(=O)O)C(=O)O [citric acid] | – | – | about 11% | over 70% | concentration in any other organ: no significant concentration |
